Measurements reported in patent US10988465B2, “CXCR4 inhibitors and uses thereof” (X4 Pharmaceuticals, Inc., priority 2016, dated 2021).

Experiments:
[1] = in vitro; settings: human, Caco-2, pH 7.4
Method: Example 37: Caco-2 Permeability Assay
The goal of this assay was to evaluate the intestinal absorption potential of drug candidates using Caco-2 cell lines.
HBSS buffer with 0.3% DMSO and 5 μM LY: add 150 μL DMSO and 50 μL LY (5 mM) into 50 ml HBSS buffer (pH 7.4).
HBSS buffer with 0.1% DMSO and 5 μM LY: add 50 μL DMSO and 50 μL LY (5 mM) into 50 mL HBSS buffer (pH 7.4).
HBSS buffer with 0.3% DMSO: add 150 μL DMSO into 50 ml HBSS buffer (pH 7.4).
HBSS buffer with 0.1% DMSO: add 50 μL DMSO into 50 ml HBSS buffer (pH 7.4).
Prepare HBSS buffer with 0.4% DMSO: add 200 μL DMSO into 50 ml HBSS buffer (pH 7.4).
Prepare HBSS buffer with 0.4% DMSO and 5 μM LY: add 200 μL DMSO and 50 μL LY (5 mM) into 50 ml HBSS buffer (pH 7.4).
4. Measure TEER Take cell culture plate out of incubator, wash the cell monolayers with HBSS buffer, and then measure TEER values at Rm temperature. 5. Centrifuge Centrifuge the compound solution (from step 3) at 4000 rpm for 5 min before loading to donor chambers. 6. Dosing Add solution based on the volumes listed in the following table (make sure to take extra 100 μL of donor sample for T0 as Backup).
7. Apical LYT0 samples To determine LY concentration in the apical chember, take 100 μL sample from apical chambers into an opaque plate for LYT0. 8. Prewarm Prewarm apical and basolateral plates at 37° C. for about 5 min, then begin transport by placing the apical plate onto basolateral plate. 9. Incubation Keep the plates in incubator at 37° C. for 90 min. 10. Standard Curve preparation
11. Transport termination Separate the apical plate from the basolateral plate after 90-min incubation.
Receiver sample: 60 μL of receiver sample+60 μL ACN with IS (Osalmid or Imipramine)
Study details: Test concentration 10 μM
Test systems: Caco-2/HBSS solution
Incubation conditions: 0, 90 min at 37° C.
Sample size: Duplicates (n=2)
Bioanalytical method: LC-MS/MS
For Millicell-24 Cell Culture Plates: surface area of the membrane=0.7 cm^2, VA=0.8 mL (A-to-B) or 0.4 mL (B-to-A)
1. Papp values were calculated based on calculated concentrations.
The compound numbers correspond to the compound numbers in Table 1.

[2] = biological target: T1, Jurkat cells expressing CXCR4 (Homo sapiens, UniProt P61073); assay: Chemokine (CXCL12-AF647) binding inhibition assay; settings: CXCL12-AF647 25 ng/mL, read-out: IC50 CXCL-12 binding Jurkat
T1 construct: endogenous in cells; host or cells: Jurkat
T1 sequence (P61073 whole entry): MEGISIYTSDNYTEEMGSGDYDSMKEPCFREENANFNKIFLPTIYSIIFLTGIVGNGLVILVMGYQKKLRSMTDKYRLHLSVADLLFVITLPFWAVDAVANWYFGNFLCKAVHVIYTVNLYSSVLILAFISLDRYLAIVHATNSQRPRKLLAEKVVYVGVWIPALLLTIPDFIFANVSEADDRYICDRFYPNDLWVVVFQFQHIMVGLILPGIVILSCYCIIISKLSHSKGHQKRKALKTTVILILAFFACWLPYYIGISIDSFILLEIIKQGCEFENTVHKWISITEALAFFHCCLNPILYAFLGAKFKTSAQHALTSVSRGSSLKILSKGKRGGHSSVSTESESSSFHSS
Method: Chemokine (CXCL12-AF647) Binding Inhibition Assay
Jurkat cells expressing CXCR4 were washed once with assay buffer (Hanks' balanced salt solution with 20 mM HEPES buffer and 0.2% bovine serum albumin, pH 7.4) and then incubated for 15 min at room temperature with the test compounds diluted in assay buffer at dose-dependent concentrations. Subsequently, CXCL12-AF647 (25 ng/mL) was added to the compound-incubated cells. The cells were incubated for 30 min at room temperature. Thereafter, the cells were washed twice in assay buffer, fixed in 1% paraformaldehyde in PBS, and analyzed on the FL4 channel of a FACSCalibur flow cytometer equipped with a 635-nm red diode laser (Becton Dickinson, San Jose, Calif., USA).
The percentages of inhibition of CXCL12-AF647 binding were calculated according to the formula: [1−((MFI−MFINC)/(MFIPC−MFINC))]×100 where MFI is the mean fluorescence intensity of the cells incubated with CXCL12-AF647 in the presence of the inhibitor, MFINC is the mean fluorescence intensity measured in the negative control (i.e., autofluorescence of unlabeled cells), and MFIPC is the mean fluorescence intensity of the positive control (i.e., cells exposed to CXCL12-AF647 alone).

[3] = biological target: T2, CXCR-4 transfected U87 cell line (U87.CXCR4) (Homo sapiens, UniProt P61073); assay: Intracellular CXCL-12-induced calcium mobilization assay (FLIPR); format: cell-based; settings: U87.CXCR4 cells; CXCL-12 25-50 ng/mL; compound added 15 min before; read-out: IC50 CXCL-12 Ca^2+ flux U87.CXCR4+
T2 construct: expressed in transfected cells; host or cells: U87 (U87.CXCR4)
T2 sequence (P61073 whole entry): as above
Method: Example 36: REGA Screening Assay
Intracellular CXCL-12-Induced Calcium Mobilization Assay
Intracellular calcium mobilization induced by chemokines or chemokine-derived peptides were evaluated using a calcium responsive fluorescent probe and a FLIPR system. The CXCR-4 transfected U87 cell line (U87.CXCR4) cells were seeded in gelatine-coated black-wall 96-well plates at 20,000 cells per well and incubated for 12 hours. Cells were then loaded with the fluorescent calcium probe Fluo-2 acetoxymethyl at 4 μM final concentration in assay buffer (Hanks' balanced salt solution with 20 mM HEPES buffer and 0.2% bovine serum albumin, pH 7.4) for 45 min at 37° C. The intracellular calcium mobilization induced by the CXCL-12 (25-50 ng/mL) was then measured at 37° C. by monitoring the fluorescence as a function of time in all the wells simultaneously using a fluorometric imaging plate reader (FLIPR Tetra, Molecular Devices).

Papp A→B at 90 min, 10 μM [1] [×10⁻⁶ cm/s]	Papp B→A at 90 min, 10 μM [1] [×10⁻⁶ cm/s]	efflux ratio at 90 min, 10 μM [1]	IC50 [2] [nM]	IC50 [3] [nM]	SMILES
10 to 30	10 to 30	0.1 to 10	≥ 1000	≥ 1000	Cc1cccnc1[C@@H]1CCC[C@H](c2nc3c(N4CCN(C)CC4)cccc3n2C)N1C [I-36]
0.1 to 10	10 to 30	10 to 30	0.01 to 100	≥ 1000	CNCCCCn1c([C@H]2CCC[C@@H](c3ncccc3C)N2C)nc2ccccc21 [I-37]
0.1 to 10	10 to 30	0.1 to 10	0.01 to 100	100 to 1000	Cc1cccnc1[C@@H]1CCC[C@H](c2nc3ccccc3n2CCCCN(C)C)N1C [I-38]
10 to 30	10 to 30	0.1 to 10	100 to 1000	≥ 1000	Cc1cccnc1[C@@H]1CCC[C@H](c2nc3ccccc3n2CCCCN2CCOCC2)N1C [I-39]
0.1 to 10	10 to 30	0.1 to 10	100 to 1000	≥ 1000	Cc1cccnc1[C@@H]1CCC[C@H](c2nc3ccccc3n2CCCCN2CCN(C)CC2)N1C [I-40]
0.1 to 10	0.1 to 10	0.1 to 10	0.01 to 100	≥ 1000	Cc1cccnc1[C@@H]1CCC[C@H](c2nc3ccccc3n2CCCCN2CCC(F)(F)CC2)N1C [I-41]
0.1 to 10	10 to 30	0.1 to 10	0.01 to 100	0.01 to 100	Cc1cccnc1[C@@H]1CCC[C@H](c2nc3cccc(OC4CCN(C)CC4)c3[nH]2)N1C [I-42]
0.1 to 10	10 to 30	0.1 to 10	0.01 to 100	0.01 to 100	CCN1CCC(Oc2cccc3nc([C@H]4CCC[C@@H](c5ncccc5C)N4C)[nH]c23)CC1 [I-43]
0.1 to 10	10 to 30	0.1 to 10	0.01 to 100	0.01 to 100	Cc1cccnc1[C@@H]1CCC[C@H](c2nc3cccc(OC4CCN(C(C)C)CC4)c3[nH]2)N1C [I-44]
0.1 to 10	10 to 30	0.1 to 10	0.01 to 100	100 to 1000	Cc1cccnc1[C@@H]1CCC[C@H](c2nc3c(Br)ccc(Br)c3n2CC2CCN(C)CC2)N1C [I-47]
10 to 30	0.1 to 10	0.1 to 10	0.01 to 100	100 to 1000	CC(C)c1cccnc1[C@@H]1CCC[C@H](c2nc3cccc(N4CCN(C)CC4)c3[nH]2)N1C [I-49]
0.1 to 10	10 to 30	10 to 30	0.01 to 100	0.01 to 100	Cc1cccnc1[C@@H]1CCC[C@H](c2nc3cccc(N4CCNC(C)C4)c3[nH]2)N1C (some centres unmarked) [I-50]
0.1 to 10	10 to 30	0.1 to 10	0.01 to 100	0.01 to 100	Cc1cccnc1[C@@H]1CCC[C@H](c2nc3cccc(N4C[C@@H](C)N[C@@H](C)C4)c3[nH]2)N1C [I-51]
0.1 to 10	10 to 30	10 to 30	0.01 to 100	0.01 to 100	Cc1cccnc1[C@@H]1CCC[C@H](c2nc3cccc(N4CCNC(C)(C)C4)c3[nH]2)N1C [I-52]
10 to 30	10 to 30	0.1 to 10	0.01 to 100	0.01 to 100	Cc1cccnc1[C@@H]1CCC[C@H](c2nc3cccc(N4CCN(C)C(C)C4)c3[nH]2)N1C (some centres unmarked) [I-53]
10 to 30	10 to 30	0.1 to 10	0.01 to 100	0.01 to 100	Cc1cccnc1[C@@H]1CCC[C@H](c2nc3cccc(N4C[C@@H](C)N(C)[C@@H](C)C4)c3[nH]2)N1C [I-54]
